Where a name gives a salt, the structure may show the parent alone.
Legend:
[1] = Measured solubility of bendamustine HCl in the diluent/solubilizer combination at room temperature; assay type: physicochemical; conditions: aqueous with cosolvent or surfactant or cyclodextrin
Procedure: The solubility of the diluent/solubilizer combination far exceeded the bendamustine concentration, thus assuring the avoidance of precipitated drug prior to or during administration. As will be appreciated by those of ordinary skill, as the concentration of solubilizers increases with respect to the total volume in small administration doses, the solubility of the bendamustine is maintained.
Bendamustine formulations containing the above ingredients are capable of delivering approximately 360 mg of the drug as the HCl salt in volumes of pharmaceutically acceptable diluent ranging from about 120 ml down to about 15 ml.

[2] = Observation of precipitation in the IV fluid during administration to patient; assay type: physicochemical
Procedure: In this example, a patient diagnosed with chronic lymphocytic leukemia (CLL) and having chronic kidney disease (GFR<30 ml/min/1.73 m^2) is begun on a treatment protocol with bendamustine. In particular, the patient is administered 360 mg of bendamustine as part of an approximately 114.4 ml infusion on days 1 and 2 of a 28 day cycle. The intravenous formulation is prepared by drawing up 14.4 ml of an RTU (ready to use) liquid containing bendamustine HCl 25 mg/ml, PG 103.2 mg/ml, PEG 1013.4 mg/ml, monothioglycerol 5 mg/ml and 0.08 mg/ml NaOH and mixing it into a 100 ml bag containing 0.9% NaCl. The final bendamustine concentration for the IV fluid is 3.15 mg/ml. The infusion is administered to the patient in less than 15 minutes.
The process of Example 1 is repeated except that the IV infusion volume is approximately 64.4 ml. The same 14.4 ml of an RTU (ready to use) liquid containing bendamustine HCl 25 mg/ml, PG 103.2 mg/ml, PEG 1013.4 mg/ml, monothioglycerol 5 mg/ml and 0.08 mg/ml NaOH is used and it is mixed into a 50 ml bag containing 0.9% NaCl. The final bendamustine concentration for the IV fluid is 5.59 mg/ml. The infusion is administered to the patient in less than 10 minutes.

Cn1c(CCCC(=O)O)nc2cc(N(CCCl)CCCl)ccc21 [bendamustine HCl, Bendamustine HCl]
solubility ([1]; half normal saline/dextrose diluent/solubilizer combination, 50 ml half normal saline/dextrose + 1 ml of 25 mg/ml bendamustine HCl and solubilizers (PG, PEG 400)): 14.2 mg/mL | solubility ([1]; normal saline diluent/solubilizer combination, 50 ml normal saline + 1 ml of 25 mg/ml bendamustine HCl and solubilizers (PG, PEG 400)): 10.5 mg/mL | precipitation of bendamustine in the IV fluid during administration ([2]; 14.4 ml RTU liquid (25 mg/ml) in 50 ml 0.9% NaCl, final 5.59 mg/ml, infusion in less than 10 minutes): No precipitated bendamustine is observed | precipitation of bendamustine in the IV fluid during administration ([2]; 14.4 ml RTU liquid (25 mg/ml) in 100 ml 0.9% NaCl, final 3.15 mg/ml, infusion in less than 15 minutes): No precipitated bendamustine is observed
